PubChem BioAssay AID330 (DTP/NCI, 2004)
Several values for one entry are separate records, joined by “and”; a condition that tells them apart may be missing. Equal values may be shown once. Toxic doses and inconclusive results are not listed. Rule for the calls: active = survival T/C of 150% or more; inactive = T/C below 125% in these data.

Test system: P388 leukemia ip, CD2F1 mice, survival T/C
Assay: NCI In Vivo Anticancer Drug Screen. Data for tumor model P388 Leukemia (intraperitoneal) in CD2F1 (CDF1) mice
Details: endpoint: median survival time, higher = longer survival
Procedure, shortened: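 Mice carrying the transplanted tumor received test compound or vehicle. Survival was recorded in each group, and the value is the treated-group measurement divided by that of the vehicle-treated control group.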

[1] = dose: 50.0 mg/kg/injection, schedule: Q01DX009 (ip), vehicle: Klucel (hydroxypropylcellulose) (HPC)
[2] = dose: 100.0 mg/kg/injection, schedule: Q01DX009 (ip), vehicle: Klucel (hydroxypropylcellulose) (HPC)
[3] = dose: 60.0 mg/kg/injection, schedule: Q01DX005 (ip), vehicle: saline
[4] = dose: 120.0 mg/kg/injection, schedule: Q01DX005 (ip), vehicle: saline
[5] = dose: 25.0 mg/kg/injection, schedule: Q01DX005 (ip), vehicle: Klucel (hydroxypropylcellulose) (HPC)
[6] = dose: 50.0 mg/kg/injection, schedule: Q01DX005 (ip), vehicle: Klucel (hydroxypropylcellulose) (HPC)
[7] = dose: 50.0 mg/kg/injection, schedule: Q01DX009 (ip), vehicle: saline with Tween-80
[8] = dose: 100.0 mg/kg/injection, schedule: Q01DX009 (ip), vehicle: saline with Tween-80
[9] = dose: 25.0 mg/kg/injection, schedule: Q01DX005 (ip), vehicle: saline with Tween-80
[10] = dose: 50.0 mg/kg/injection, schedule: Q01DX005 (ip), vehicle: saline with Tween-80
[11] = dose: 60.0 mg/kg/injection, schedule: Q01DX005 (ip), vehicle: saline with Tween-80
[12] = dose: 120.0 mg/kg/injection, schedule: Q01DX005 (ip), vehicle: saline with Tween-80
[13] = dose: 240.0 mg/kg/injection, schedule: Q01DX005 (ip), vehicle: saline with Tween-80
[14] = dose: 100.0 mg/kg/injection, schedule: Q01DX005 (ip), vehicle: saline with Tween-80
[15] = dose: 200.0 mg/kg/injection, schedule: Q01DX005 (ip), vehicle: saline with Tween-80
[16] = dose: 25.0 mg/kg/injection, schedule: Q01DX009 (ip), vehicle: other
[17] = dose: 50.0 mg/kg/injection, schedule: Q01DX009 (ip), vehicle: other
[18] = dose: 100.0 mg/kg/injection, schedule: Q01DX009 (ip), vehicle: other
[19] = dose: 100.0 mg/kg/injection, schedule: Q01DX001 (ip), vehicle: saline
[20] = dose: 200.0 mg/kg/injection, schedule: Q01DX001 (ip), vehicle: saline
[21] = dose: 400.0 mg/kg/injection, schedule: Q01DX001 (ip), vehicle: saline

Measured: T/C

CNCC(=O)c1ccc(O)c(O)c1N=O
inactive: dose: 100.0 mg/kg/injection, schedule: Q04DX002 (ip), vehicle: saline with Tween-80 114 % of control | dose: 200.0 mg/kg/injection, schedule: Q04DX002 (ip), vehicle: saline with Tween-80 108 % of control | dose: 400.0 mg/kg/injection, schedule: Q04DX002 (ip), vehicle: saline with Tween-80 108 % of control

[Cu].[NH-]C1CCCC2CCC[N-]C12.[NH-]C1CCCC2CCC[N-]C12 (centres undefined)
inactive: dose: 12.5 mg/kg/injection, schedule: Q04DX002 (ip), vehicle: saline with Tween-80 106 % of control

CCC(c1ccccc1)c1noc(CCN(CC)CC)n1 (centres undefined)
inactive: [1] 101 % of control | [2] 99 % of control | dose: 200.0 mg/kg/injection, schedule: Q01DX009 (ip), vehicle: Klucel (hydroxypropylcellulose) (HPC) 113 % of control

[O-][Br+2]([O-])O
inactive: [3] 99 % of control | [4] 99 % of control

CCCN1C=C(C(=O)OC)C(N)=C(C#N)/C1=C\C=C(/C#N)C(=O)OC
inactive: dose: 50.0 mg/kg/injection, schedule: Q04DX002 (ip), vehicle: Klucel (hydroxypropylcellulose) (HPC) 93 % of control | dose: 100.0 mg/kg/injection, schedule: Q04DX002 (ip), vehicle: Klucel (hydroxypropylcellulose) (HPC) 100 % of control | dose: 200.0 mg/kg/injection, schedule: Q04DX002 (ip), vehicle: Klucel (hydroxypropylcellulose) (HPC) 90 % of control

C1=NCc2ccsc2-n2cccc21
inactive: [5] 100 % of control | [6] 105 % of control

CCn1c2ccccc2c2cc(N=Nc3cc[n+]([O-])c4c(O)cccc34)ccc21
inactive: dose: 5.0 mg/kg/injection, schedule: Q01DX009 (ip), vehicle: saline with Tween-80 110 % of control | dose: 10.0 mg/kg/injection, schedule: Q01DX009 (ip), vehicle: saline with Tween-80 102 % of control | dose: 20.0 mg/kg/injection, schedule: Q01DX009 (ip), vehicle: saline with Tween-80 106 % of control | dose: 40.0 mg/kg/injection, schedule: Q01DX009 (ip), vehicle: saline with Tween-80 107 % of control | [7] 86 % of control

C=CCCCC(=O)CCCCBr
inactive: [7] 122 % of control | [8] 108 % of control | dose: 200.0 mg/kg/injection, schedule: Q01DX009 (ip), vehicle: saline with Tween-80 110 % of control

CCCCC(=S)SSC(C)(C)C
inactive: dose: 12.5 mg/kg/injection, schedule: Q01DX005 (ip), vehicle: saline with Tween-80 108 % of control | [9] 115 % of control | [10] 100 % of control and 114 % of control

CC(=O)OCC1OC(Nc2[nH]c(=O)n(C)c(=O)c2C(=O)CCl)C(OC(C)=O)C(OC(C)=O)C1OC(C)=O (centres undefined)
inactive: [11] 114 % of control | [12] 105 % of control | [13] 124 % of control

C=C1C(=O)[C@@]23CC1C(O)[C@@H](OC(C)=O)[C@@H]2C1(C)C(OC(C)=O)C[C@@H](OC(C)=O)C(C)(C)[C@@H]1C[C@H]3OC(C)=O (some centres undefined)
inactive: [5] 102 % of control | [6] 117 % of control

CC(C)(C)NCc1cc(Nc2ccnc3cc(Cl)ccc23)cc(-c2ccc(Cl)cc2)c1O
inactive: dose: 15.0 mg/kg/injection, schedule: Q01DX005 (ip), vehicle: saline with Tween-80 100 % of control | dose: 30.0 mg/kg/injection, schedule: Q01DX005 (ip), vehicle: saline with Tween-80 100 % of control | [11] 95 % of control and 98 % of control | [12] 105 % of control | [13] 97 % of control

CC(C)=CCCc1cc(-c2cc(CCC=C(C)C)nc(N)n2)nc(N)n1
inactive: [3] 99 % of control | [4] 103 % of control

O=C(NC(=O)c1c(F)cccc1F)Nc1ccc(C(O)(C(F)(F)F)C(F)(F)F)cc1
inactive: [10] 102 % of control | [14] 100 % of control | [15] 109 % of control

CCN(CC)CCNc1ccc(C)c2sc3cc(O)ccc3c(=O)c12
inactive: dose: 50.0 mg/kg/injection, schedule: Q01DX005 (ip), vehicle: saline 107 % of control | dose: 100.0 mg/kg/injection, schedule: Q01DX005 (ip), vehicle: saline 108 % of control | dose: 200.0 mg/kg/injection, schedule: Q01DX005 (ip), vehicle: saline 106 % of control

Cc1cc(NCc2ccccc2)c(C)c2c1C=NCC2
inactive: dose: 12.5 mg/kg/injection, schedule: Q01DX009 (ip), vehicle: distilled water + Tween-80 97 % of control | dose: 25.0 mg/kg/injection, schedule: Q01DX009 (ip), vehicle: distilled water + Tween-80 97 % of control | dose: 50.0 mg/kg/injection, schedule: Q01DX009 (ip), vehicle: distilled water + Tween-80 106 % of control | dose: 100.0 mg/kg/injection, schedule: Q01DX009 (ip), vehicle: distilled water + Tween-80 92 % of control | dose: 200.0 mg/kg/injection, schedule: Q01DX009 (ip), vehicle: distilled water + Tween-80 87 % of control

CC(C)(C)C1=CC(=O)C(=O)C(C(C)(C)C)=C1
inactive: [16] 101 % of control | [17] 108 % of control | [18] 108 % of control

COc1cc(/C=N/NP(=S)(Oc2ccc(C(C)(C)C)cc2)Oc2ccc(C(C)(C)C)cc2)cc(OC)c1O
inactive: [1] 99 % of control | [2] 99 % of control

COc1ccc2c3c(c4ccccc4c2c1)C(=O)OC3=O
inactive: [9] 87 % of control | [10] 87 % of control | [14] 109 % of control

COC(=O)C(NC(N)=O)OC (centres undefined)
inactive: dose: 25.0 mg/kg/injection, schedule: Q01DX009 (ip), vehicle: saline 105 % of control | dose: 50.0 mg/kg/injection, schedule: Q01DX009 (ip), vehicle: saline 100 % of control | dose: 100.0 mg/kg/injection, schedule: Q01DX009 (ip), vehicle: saline 103 % of control

Cc1ccc(S(=O)(=O)N/N=C\c2c(-c3ccc(Cl)cc3)nc3sccn23)cc1
inactive: dose: 100.0 mg/kg/injection, schedule: Q01DX001 (ip), vehicle: Klucel (hydroxypropylcellulose) (HPC) 93 % of control | dose: 200.0 mg/kg/injection, schedule: Q01DX001 (ip), vehicle: Klucel (hydroxypropylcellulose) (HPC) 94 % of control

COC1CCCC=C1[N+](=O)[O-] (centres undefined)
inactive: dose: 6.25 mg/kg/injection, schedule: Q01DX005 (ip), vehicle: saline 108 % of control | dose: 12.5 mg/kg/injection, schedule: Q01DX005 (ip), vehicle: saline 116 % of control | dose: 25.0 mg/kg/injection, schedule: Q01DX005 (ip), vehicle: saline 115 % of control

CN(C=O)C(C(=O)Nc1cccc2c(OC(=O)C(N(C)C=O)(N(C)C=O)N(C)C=O)c(N=Nc3ccc(S(=O)(=O)Nc4nccs4)cc3)cc(N=Nc3ccc(S(=O)(=O)Nc4nccs4)cc3)c12)(N(C)C=O)N(C)C=O (tested in a mixture with another compound)
inactive: [14] 114 % of control | [15] 115 % of control | dose: 500.0 mg/kg/injection, schedule: Q01DX001 (ip), vehicle: saline with Tween-80 109 % of control | dose: 1000.0 mg/kg/injection, schedule: Q01DX001 (ip), vehicle: saline with Tween-80 105 % of control | dose: 2000.0 mg/kg/injection, schedule: Q01DX001 (ip), vehicle: saline with Tween-80 113 % of control

CC(=O)Oc1c(I)cc(Cc2nc(C)oc2C)cc1I
inactive: [19] 99 % of control | [20] 102 % of control | [21] 102 % of control

CC(=NC(C)(C)C)Nc1ccc(Cl)cc1
inactive: [7] 103 % of control | [8] 109 % of control

COCCCn1nnc2ccccc2c1=O
inactive: [16] 105 % of control | [17] 100 % of control | [18] 104 % of control | dose: 200.0 mg/kg/injection, schedule: Q01DX009 (ip), vehicle: other 106 % of control

CCCCCCCCC1=CCc2c1ccc1c2ccc2cc(C(=O)Oc3cccc(N(CCCl)CCCl)c3)ccc21
inactive: [19] 99 % of control | [20] 100 % of control | [21] 100 % of control

Cc1cc2c(c3c1C(C)CCC3=O)C(C)(C)CC2(C)C (centres undefined)
inactive: dose: 50.0 mg/kg/injection, schedule: Q01DX005 (ip), vehicle: saline + Tween-80 + alcohol 101 % of control | dose: 100.0 mg/kg/injection, schedule: Q01DX005 (ip), vehicle: saline + Tween-80 + alcohol 108 % of control | dose: 200.0 mg/kg/injection, schedule: Q01DX005 (ip), vehicle: saline + Tween-80 + alcohol 104 % of control
